The values below come from ChEMBL document CHEMBL5108078, “Design and Synthesis of Phenyl Sulfide-Based Cationic Amphiphiles as Membrane-Targeting Antimicrobial Agents against Gram-Positive Pathogens” (J Med Chem, 2022).

Values after ≈ are worked out from the molar mass of the structure shown.

Series [1] can be described thus: Hemolytic activity in rabbit RBC incubated for 1 hr by microplate reader analysis. In kind it is toxicity, cell-based, Oryctolagus cuniculus, Erythrocyte. The following applies: rabbit red blood cells (erythrocytes).
For series [2], the system named is Staphylococcus aureus. The experiment in a line: Antibacterial activity against Staphylococcus aureus ATCC 29213 assessed as inhibition of bacterial growth incubated for 24 hrs by microbroth dilution method. It is filed as functional. Background: Broth dilution looks for growth in wells or tubes with falling amounts of substance.
The subject of series [3] is Staphylococcus aureus. As to the kind of experiment: Antibacterial activity against methicillin resistant Staphylococcus aureus N315 assessed as inhibition of bacterial growth incubated for 24 hrs by microbroth dilution method. In kind it is functional.
Series [4] deals with Staphylococcus aureus. As to the kind of experiment: Antibacterial activity against methicillin resistant Staphylococcus aureus NCTC10442 assessed as inhibition of bacterial growth incubated for 24 hrs by microbroth dilution method. It is filed as functional.
A further series has as its system Bacillus subtilis. The experiment in a line: Antibacterial activity against Bacillus subtilis CMCC63501 assessed as inhibition of bacterial growth incubated for 24 hrs by microbroth dilution method. It is filed as functional.
Series [5] relates to Staphylococcus epidermidis. The experiment in a line: Antibacterial activity against Staphylococcus epidermidis ATCC 12228 assessed as inhibition of bacterial growth incubated for 24 hrs by microbroth dilution method. In kind it is functional.
The test system of series [6] is Staphylococcus epidermidis. As to the kind of experiment: Antibacterial activity against Staphylococcus epidermidis CMCC26069 assessed as inhibition of bacterial growth incubated for 24 hrs by microbroth dilution method. It is filed as functional.
The test system of a further series is Enterococcus faecalis. The experiment in a line: Antibacterial activity against Enterococcus faecalis ATCC 29212 assessed as inhibition of bacterial growth incubated for 24 hrs by microbroth dilution method. In kind it is functional.
In series [7] the test system is Staphylococcus aureus. The experiment in a line: Antibacterial activity against Staphylococcus aureus ATCC 15981 assessed as inhibition of bacterial growth incubated for 24 hrs by microbroth dilution method. In kind it is functional.

As a reminder, the HC50 is the concentration that lyses half of the red blood cells. The term MIC denotes the smallest concentration in the dilution series that meets the test's criterion for growth inhibition. Take `CC(C)(C)CC(C)(C)c1ccc(OCC(=O)N[C@@H](CCCNC(=N)N)C(N)=O)c(Sc2cc(C(C)(C)CC(C)(C)C)ccc2OCC(=O)N[C@@H](CCCNC(=N)N)C(N)=O)c1`: in series [1], the HC50 at 1 h was 183 µg/mL. Also, the MIC with Staphylococcus aureus [2] amounted to 3.12 µg/mL (≈ 3.6 µM); with Staphylococcus aureus [3] it was 1.56 µg/mL (≈ 1.79 µM); in the series on Staphylococcus aureus [4], 3.12 µg/mL (≈ 3.6 µM).

In turn, `CCCCCCNCCCCOc1ccc(C(C)(C)CC(C)(C)C)cc1Sc1cc(C(C)(C)CC(C)(C)C)ccc1OCCCCNCCCCCC` showed a 50% haemolytic concentration (HC50) at 1 h in series [1] of more than 200 µg/mL. Besides, the MIC in the series on Staphylococcus aureus [2], in the series on Staphylococcus aureus [3] and in the series on Staphylococcus aureus [4] was more than 50 µg/mL throughout.

For the compound `CC(C)(C)CC(C)(C)c1ccc(O)c(Sc2cc(C(C)(C)CC(C)(C)C)ccc2OCC(=O)N[C@@H](CCCNC(=N)N)C(N)=O)c1`, the 50% haemolytic concentration (HC50) at 1 h in series [1] was more than 200 µg/mL. Moreover, the MIC with Staphylococcus aureus [2], with Staphylococcus aureus [3] and with Staphylococcus aureus [4] was 12.5 µg/mL (≈ 19.1 µM) throughout.

Consider `CN(C)CCCCOc1ccc(C(C)(C)CC(C)(C)C)cc1Sc1cc(C(C)(C)CC(C)(C)C)ccc1OCCCCN(C)C`, for which, in series [1], the HC50 at 1 h amounted to 23.2 µg/mL. Further, the MIC in the series with Staphylococcus aureus [2], in the series with Staphylococcus aureus [3] and in the series with Staphylococcus aureus [4] was 1.56 µg/mL (≈ 2.43 µM) in each case.

The compound `COC(=O)[C@H](CCCCN)NC(=O)COc1ccc(C(C)(C)CC(C)(C)C)cc1Sc1cc(C(C)(C)CC(C)(C)C)ccc1OCC(=O)N[C@@H](CCCCN)C(=O)OC` displayed an HC50 at 1 h in series [1] of 162 µg/mL. Further, the MIC came to 3.12 µg/mL (≈ 3.71 µM) in the series on Staphylococcus aureus [2], 1.56 µg/mL (≈ 1.85 µM) in the series with Staphylococcus aureus [3] and 3.12 µg/mL (≈ 3.71 µM) in the series on Staphylococcus aureus [4].

`CC(C)(C)CC(C)(C)c1ccc(OCC(=O)N[C@@H](CCCNC(=N)N)C(=O)N[C@@H](CCCNC(=N)N)C(N)=O)c(Sc2cc(C(C)(C)CC(C)(C)C)ccc2OCC(=O)N[C@@H](CCCNC(=N)N)C(=O)N[C@@H](CCCNC(=N)N)C(N)=O)c1` returned an HC50 at 1 h in series [1] of more than 200 µg/mL. The MIC in the series on Staphylococcus aureus [2], with Staphylococcus aureus [3] and in the series on Staphylococcus aureus [4] was 6.25 µg/mL (≈ 5.29 µM) in each case.

As for `CCN(CC)CCCCOc1ccc(C(C)(C)CC(C)(C)C)cc1Sc1cc(C(C)(C)CC(C)(C)C)ccc1OCCCCN(CC)CC`, the HC50 at 1 h in series [1] is 67.9 µg/mL. In addition, the figures for the MIC in the series on Staphylococcus aureus [2], in the series on Staphylococcus aureus [3] and in the series on Staphylococcus aureus [4] were 3.12 µg/mL (≈ 4.48 µM), 1.56 µg/mL (≈ 2.24 µM) and 3.12 µg/mL (≈ 4.48 µM), respectively.

`CC(C)(C)CC(C)(C)c1ccc(OCCCCBr)c(Sc2cc(C(C)(C)CC(C)(C)C)ccc2OCCCCBr)c1` came in with an HC50 at 1 h in [1] of more than 200 µg/mL. Moreover, the MIC with Staphylococcus aureus [2], in the series on Staphylococcus aureus [3] and in the series with Staphylococcus aureus [4] was more than 50 µg/mL in each case.

`COC(=O)[C@H](CCCNC(=N)N)NC(=O)[C@H](CCCNC(=N)N)NC(=O)[C@H](CCCNC(=N)N)NC(=O)COc1ccc(C(C)(C)CC(C)(C)C)cc1Sc1cc(C(C)(C)CC(C)(C)C)ccc1OCC(=O)N[C@@H](CCCNC(=N)N)C(=O)N[C@@H](CCCNC(=N)N)C(=O)N[C@@H](CCCNC(=N)N)C(=O)OC`: the HC50 at 1 h in series [1] is more than 200 µg/mL. In addition, the results for the minimal inhibitory concentration (MIC) in the series on Staphylococcus aureus [2], in the series with Staphylococcus aureus [3] and in the series with Staphylococcus aureus [4] were 6.25 µg/mL (≈ 4.1 µM), 6.25 µg/mL (≈ 4.1 µM) and 3.12 µg/mL (≈ 2.05 µM), respectively.

In series [1], `CCOC(=O)COc1ccc(C(C)(C)CC(C)(C)C)cc1Sc1cc(C(C)(C)CC(C)(C)C)ccc1O` returned an HC50 at 1 h of more than 200 µg/mL. Moreover, the minimal inhibitory concentration (MIC) in the series on Staphylococcus aureus [2], in the series with Staphylococcus aureus [3] and in the series on Staphylococcus aureus [4] was more than 50 µg/mL each time.

The compound `CC(C)(C)CC(C)(C)c1ccc(OCCCCNC(=N)N)c(Sc2cc(C(C)(C)CC(C)(C)C)ccc2OCCCCNC(=N)N)c1` registered a 50% haemolytic concentration (HC50) at 1 h in [1] of more than 200 µg/mL. The MIC with Staphylococcus aureus [2], in the series on Staphylococcus aureus [3] and in the series with Staphylococcus aureus [4] was 3.12 µg/mL (≈ 4.67 µM) in each case.

Take `COC(=O)[C@H](CCCNC(=N)N)NC(=O)[C@H](CCCNC(=N)N)NC(=O)COc1c(Sc2cc(C)cc(C(C)(C)C)c2OCC(=O)N[C@@H](CCCNC(=N)N)C(=O)N[C@@H](CCCNC(=N)N)C(=O)OC)cc(C)cc1C(C)(C)C`: the HC50 at 1 h in [1] is more than 200 µg/mL. The MIC was determined as 1.56 µg/mL (≈ 1.38 µM) in the series on Staphylococcus aureus [2]; 1.56 µg/mL (≈ 1.38 µM) with Staphylococcus aureus [3]; 1.56 µg/mL (≈ 1.38 µM) in the series on Staphylococcus aureus [4]; 0.78 µg/mL (≈ 0.692 µM) in the series with Bacillus subtilis; 0.78 µg/mL (≈ 0.692 µM) in series [5]; 0.78 µg/mL (≈ 0.692 µM) in series [6]. Moreover, the MIC came to 25 µg/mL (≈ 22.2 µM) with Enterococcus faecalis and 1.56 µg/mL (≈ 1.38 µM) with Staphylococcus aureus [7].

In series [1], `Cc1cc(Sc2cc(C)cc(C(C)(C)C)c2O)c(O)c(C(C)(C)C)c1` yielded an HC50 at 1 h of more than 200 µg/mL. The MIC in the series on Staphylococcus aureus [2], in the series with Staphylococcus aureus [3] and with Staphylococcus aureus [4] was more than 50 µg/mL each time.

In series [1], `CC(C)(C)CC(C)(C)c1ccc(OCCCCN2CCSCC2)c(Sc2cc(C(C)(C)CC(C)(C)C)ccc2OCCCCN2CCSCC2)c1` gave an HC50 at 1 h of more than 200 µg/mL. The MIC with Staphylococcus aureus [2], in the series with Staphylococcus aureus [3] and with Staphylococcus aureus [4] was more than 50 µg/mL in each case.
